Results as given in patent US8889411B2, “Modulation of stem and progenitor cell differentiation, assays, and uses thereof” (Anthrogenesis Corporation, priority 2002, dated 2014).

Columns and labels:
[1] = tested on: Bone marrow and cord blood CD34+ progenitor cells; assay: Differentiation of CD34+ progenitor cells into dendritic cells, cell surface phenotype by flow cytometry; format: cell-based, human; parameters: key to Cell Population CD15+ / Cell Population CD34+ CD38− / Cell Population CD34− CD38+ / Cell Population CD1a+ CD14− / Cell Population CD1a− CD14+: ↑: up arrow indicates an increase in the cell population; ↓: down arrow indicates a decrease
Method: Bone marrow and cord blood CD34^+ progenitor cells were obtained from Clonetics and cultured in Iscove's MDM with BIT 95000 (StemCell Technologies) in the presence of SCF, Flt-3L, GM-CSF and TNF-α for 6 days, and then in the presence of GM-CSF and TNF-α for 6 additional days.
Analysis of cell surface phenotype: Cells were processed for double staining (30 min at 4° C.) at day 6 and day 12 using FITC and PE conjugated mAbs. Antibodies used were from BD Pharmingen: CD34 (PE), CD38 (FITC), CD33 (FITC), CD1a (FITC), CD86 (PE), CD14 (PE), CD83 (PE), CD54 (PE), CD11b (PE), CD11c (PE), HLA-DR (PE), CD15 (FITC), and CD133 (PE) from Miltenyi. Fluorescence analysis was performed on a FACScan flow cytometer after acquisition of 10,000 events (Coulter). Results presented are representative of four independent experiments.
The methodology described above, i.e., the examination of the effect of IMiDs such as ACTIMID™ on the differentiation on early progenitor cells, such as CD34^+ cells, can be applied to any compound of interest, the effect of which on differentiation is desired to be known. As an example of the extension of this assay method to other compounds, we compared the effect of retinoic acid (ATRA) and aspirin to that of ACTIMID™ on the differentiation of CD34^+ cells toward the DC lineage versus the control (DMSO-treated) cells. Retinoic acid was studied because of its known effect on cellular proliferation and differentiation, its therapeutic use in some cancer, and its known teratogenic effect. Conversely, we studied the effect of aspirin because it is a commonly-used anti-inflammatory drug with no immunomodulatory properties. The results at day 6 of CD34^+ progenitors cells cultured in the presence of SCF, Flt-3L, GM-CSF and TNF-α, with or without compound for a period of 6 days, are presented below in Table 2 (up arrow indicates an increase in the cell population; down arrow indicates a decrease).

[2] = tested on: Purified human cord blood CD34+ cells; assay: Monocyte production: CD34/CD14 staining of cord blood CD34+ cells cultured 14 days with cytokines; format: cell-based
Method: Purified human cord blood CD34+ cells (greater than 90% CD34+) were cultured in 20% FCS IMDM medium supplemented with cytokines (IL3, IL6, G-CSF, KL and Epo) at 4×10^4 cells/ml for 14 days at 37° C. in a humidified 5% CO2 incubator. The experimental groups consisted of a group in which (i) no DMSO or chemical compounds were added (“None”), (ii) DMSO only, (iii) Thalidomide dissolved in DMSO, (iv) ACTIMID™ dissolved in DMSO, and (v) REVIMID™ dissolved in DMSO. Aliquots of cells were harvested and stained with CD34-PE conjugated monoclonal antibody and CD14-FITC conjugated monoclonal antibody.

[3] = tested on: Human Cord Blood MNC Cells; assay: FACS analysis of cryopreserved and thawed cord blood MNCs after 1 week of culture with cytokines; format: cell-based; details: 5 μg in 1.7 μl DMSO, average +/− SD of three wells
Method: Cord blood MNCs that had been cryopreserved and thawed using standard methods were isolated by standard Ficoll separation method and cultured in 24 well-plate at 0.5×10^6 cells/ml in 20% FCS-IMDM with cytokines (1L6, KL and G-CSF 10 ng/ml each) in triplicates. The experimental groups were None (cytokines only), DMSO (1.7 μl), ACTIMID™ (5.0 μg in 1.7 μl DMSO), REVIMID™ (5 μg in 1.7 μl DMSO). The cultured cells were harvested and analyzed by FACS staining after 1 week of culture. The data are expressed as an average +/− SD from three independent wells.

[4] = tested on: Murine Sca+Lin− hematopoietic progenitor cells; assay: Generation of murine dendritic cells from bone marrow Sca+Lin− progenitors, cell surface phenotype; format: cell-based, mouse (C57BL/6)
From the text: Mouse bone marrow from inbred C57BL/6 mice was obtained from Clonetics. Hematopoietic Sca+Lin− progenitors were enriched using SpinSep murine progenitor enrichment cocktail (StemCell Technologies) and cultured in Iscove's MDM with BIT 95000 (StemCell Technologies) in the presence of murine growth factors SCF, Flt3L, GM-CSF and M-CSF for 9 days, to promote expansion of Sca+ cells and a DC precursor phenotype and then in the presence of GM-CSF and TNF-α for 3 additional days to drive the cells to an immature DC phenotype. Enriched Sca+Lin− cells were cultured in the presence of DMSO (0.1%), ACTIMID™ at 10 μM or all-trans retinoic acid (ATRA) (ICN Biomedicals) at 10 μM from day 0. Compounds were added to cells at day 0 and day 9.
Analysis of Murine cell surface phenotype: Murine cells were processed for double staining (14 min at RT) at day 9 and day 12; using FITC and PE conjugated mAbs. Antibodies used were from BD Pharmingen: Sea (PE), CD11b (FITC), Gr-1 (FITC), CD86 (PE), CD14 (PE), CD80 (PE), I-A^b (PE), CD40 (PE) and CD32.1/16.1 (FITC) from Miltenyi. Fluorescence analysis was performed on a FACScan flow cytometer (Coulter) after acquisition of 10,000 events.

[5] = Day 12, compound from day 6 to day 12
[6] = day 6, SCF, Flt-3L, GM-CSF and TNF-α, versus DMSO-treated control
[7] = 10 μM, added at day 0 and day 9

## Nc1cccc2c1C(=O)N(C1CCC(=O)NC1=O)C2=O (stereo not drawn) [ACTIMID™, 4-(Amino)-2-(2,6-dioxo(3-piperidyl))-isoindoline-1,3-dione]
[1]
  toxic effects on CD34+ cells: no toxic effects
[1]; 1 μM, day 1 to day 12
  CD34+CD38− population: increased
  acquisition of the DC phenotype: inhibited
  expression of co-stimulatory molecules (CD86, CD80) at day 12: decreased expression
[1]; 1 μM, day 12
  expression of the CD54bright population: decreased expression
  expression of the CD54dim population: increased expression
[1]; 1 μM, from day 1
  generation of CD14+CD1a− cells: decreased
[1]; 1 μM, from day 1, particularly CD86+CD1a+ cells
  generation of CD1a+ cells at day 6: almost completely prevented
[1]; 12 days in the presence of compound, FIG. 22
  expression of the CD15 surface molecule (granulocytic marker): increased
[1]; CD34+ cells
  cells' ability to proliferate: not to impair
[1]; [5]
  CD1a+: 11.5%
  CD14+: 8.0%
  CD80+: 13.8%
  CD86+: 18.5%
[1]; FIG. 19B
  CD11c+CD15− population: decrease
  CD11c−CD15+ granulocytic population: increase
[1]; [6]
  Cell Population CD1a+ CD14−: ↓
  Cell Population CD1a− CD14+: ↓
  Cell Population CD15+: ↑
  Cell Population CD34+ CD38−: ↑
  Cell Population CD34− CD38+: ↓
[1]; dose dependant, day 0 to day 6, FIG. 17
  concentration at which increase in CD34+CD38− cells and block in myeloid DC progenitors reached a maximum: 1 µM
[1]; effect reversible, FIG. 18
  culture time with compound needed for interference with the CD34 differentiation pathway: at least 3 days
[1]; multiple doses
  expression of CD133: increases
[1]; multiple doses between days 0 and 6
  increase in the CD34+ population: intensified the increase
[1]; treated CD34+ progenitors, day 12
  expression of HLA-DR molecules: reduced
[2]; 5 μg/ml, compared to control, FIG. 13
  percentage of monocyte lineage cells: increase
[2]; 14 days, IL3, IL6, G-CSF, KL and Epo, compound dissolved in DMSO
  percentage of CD34+ cells of the total cells: 18.7%
[2]; 14 days, relative to DMSO-treated group
  production of monocytes (CD14+ cells): overcome
[3]
  CD34(%): 3.31 +/− 0.64%
  CD34+CD38−(%): 1.70 +/− 0.22%
  CXCR4+CD45+(%): 2.9 +/− 0.5%
  CXCR4+CD45−(%): 4.27 +/− 0.23%
  Total CD34+ cells: 7800 +/− 2600
  Total cells (1 × 10^6): 0.223 +/− 0.06 1 × 10^6
[4]; 10 μM from day 0
  cell surface marker expression by day 9: no significant effect
[4]; [7]
  CD11b expression by day 12: upregulation
  CD86 and bright I-A^b expression by day 12: downregulation
[4]; 10 μM, not shown
  expression of CD40 and CD80: no effects
